Source: article PMC11513842, “Development of an orally bioavailable CDK12/13 degrader and induction of synthetic lethality with AKT pathway inhibition” (Cell Reports Medicine, 2024)
Where two headings read alike, the source gives them in different places.

Legend:
MCF7 = test: Cell viability assay (CellTiter-Glo, 5 days); assay type: cell-based; details: Homo sapiens, 120 h; MCF7, 5 days of treatment, Figure 1F
Method: (§1) Cells were seeded in 96-well plates and incubated at 37°C with 5% CO2 overnight. A series of compound dilutions were added into the cells. After 5 days incubation, cell proliferation was tested using the CellTiter-Glo assay (Promega) according to the manufacturer’s protocol. Luminescence was measured using the Infinite M1000 Pro plate reader (Tecan). Data analysis was conducted using GraphPad Prism software.

MDA-MB-468 = test: Cell viability assay (CellTiter-Glo, 5 days); assay type: cell-based; details: Homo sapiens, 120 h; MDA-MB-468, 5 days of treatment, Figure 1F
Method: as §1

PC3 = test: Cell viability assay (CellTiter-Glo, 5 days); assay type: cell-based; details: Homo sapiens, PC-3, 120 h; PC3, 5 days of treatment, Figure 1F
Method: as §1

CDK12 and CDK13 = details: VCaP cells
Method: After treatment of varying conditions, cell lysates were prepared using RIPA buffer (ThermoFisher Scientific) supplemented with cOmplete protease inhibitor cocktail tablets (Sigma-Aldrich). The Pierce BCA Protein Assay Kit ([…]) was used to determine the protein concentrations. Proteins with an equal amount from each sample were loaded on NuPAGE 3–8% Tris-Acetate or 4–12% Bis-Tris protein gels (ThermoFisher Scientific) and subsequently transferred to membranes, which were blocked using 5% nonfat milk. Following blocking at room temperature for 1 h, the membrane was further incubated with varying primary antibodies at 4°C overnight. HRP-conjugated secondary antibodies were used for detection, and membrane imaging was conducted using an Odyssey Fc Imager (LI-COR Biosciences).

[1] = test system: castrated VCaP xenograft (VCaP-CRPC); test: VCaP castration-resistant prostate cancer xenograft efficacy; assay type: in vivo, mouse; details: i.v. 30 mg/kg 3x/week, 18 days
Method: (§2) Six-week-old male CB17SCID mice obtained from Charles River (Stock # 236), were used to establish subcutaneous tumors on both dorsal flanks. Tumor dimensions were measured biweekly using digital calipers, applying the formula (π/6) (L × W^2), where L and W represent tumor length and width, respectively. At the study conclusion, mice were euthanized, and tumors were excised and weighed. The University of Michigan Institutional Animal Care and Use Committee (IACUC) approved all in vivo studies.
For the VCaP castration-resistant tumor model, 3×10^6 VCaP cells were subcutaneously injected into both dorsal flanks of mice using a serum-free medium mixed with 50% Matrigel (BD Biosciences). Upon tumors reaching palpable size (∼200 mm^3), animals underwent castration. When tumors regrew to their pre-castration size, mice were randomized for treatment with 30 mg/kg YJ9069 or vehicle via intravenous injection or 100 mg/kg YJ1206 or vehicle, […]

WA74 PDX = test: WA74 patient-derived xenograft efficacy; assay type: in vivo, mouse
Method: as §2
WA74 PDX model was developed at the University of Michigan during collection of a rapid autopsy case as part of the Michigan Legacy Tissue Program (MLTP). PC310 PDX model was obtained from Erasmus Medical Center, Rotterdam, the Netherlands. Both PDX lines were propagated in male CB17SCID mice by surgically implanting 2 mm^3 tumor fragments, coated with 100% Matrigel, into both flanks of mice. When tumors reached approximately 200 mm^3, mice were randomized into treatment groups. These groups received either 30 mg/kg YJ9069 via intravenous injection or 100 mg/kg YJ1206 by oral gavage, both administered three times per week, with or without 15 mg/kg uprosertib by oral gavage five days per week for 3–4 weeks. In accordance with IACUC guidelines, the maximum tumor size was limited to 2.0 cm in any dimension, and mice were euthanized if xenografts reached this endpoint.

[2] = test system: normal and non-neoplastic cells; test: Cell viability screening, panel of 155 normal and cancer cell lines; assay type: cell-based; details: Homo sapiens, 120 h, 5 days, Figure 1G
Method: as §1

[3] = test system: androgen receptor (AR)-positive prostate and breast cancer cells; test: as above; assay type: cell-based; details: Homo sapiens, 120 h, 5 days, Figure 1G
Method: as §1

[4] = Pharmacokinetic profile in Sprague Dawley rats; assay type: in vivo, rat; details: Sprague-Dawley, rat, plasma, SD rats; for AUC(0-t): read-out: AUC(0-t); for Tmax: read-out: Tmax
[5] = Body weight of treated animals in tumor models; assay type: in vivo, mouse; details: all tumor models (castrated VCaP, WA74 PDX, PC310 PDX), i.v. 30 mg/kg
Method: as §2
For the VCaP castration-resistant tumor model, 3×10^6 VCaP cells were subcutaneously injected into both dorsal flanks of mice using a serum-free medium mixed with 50% Matrigel (BD Biosciences). Upon tumors reaching palpable size (∼200 mm^3), animals underwent castration. When tumors regrew to their pre-castration size, mice were randomized for treatment with 30 mg/kg YJ9069 or vehicle via intravenous injection or 100 mg/kg YJ1206 or vehicle, with or without 15 mg/kg uprosertib by oral gavage. Treatments were administered three times weekly for three to four weeks.
For the 22Rv1 castration-resistant tumor model, mice underwent castration and then 12 days of recovery. Subsequently, 1 × 10^6 22Rv1 cells were subcutaneously injected into both dorsal flanks using a serum-free medium with 50% Matrigel (BD Biosciences). […]

[6] = Toxicity study in CD-1 immune-competent mice; assay type: in vivo, mouse
[7] = Pharmacokinetic profile in CD-1 mice; assay type: in vivo; details: plasma, CD-1 mouse; for AUC: read-out: AUC(0-⊠)
VCaP cells = test: Cell viability assay (CellTiter-Glo, 5 days); assay type: cell-based, human; details: Homo sapiens, VCaP
Method: as §1

For O=C1CCC(N2C(=O)c3cccc(OCC(=O)N4CCN(c5ccc(N(C(=O)NCc6ccccc6)C6CCC(Nc7ncc8ccccc8n7)CC6)cc5)CC4)c3C2=O)C(=O)N1 (centres unmarked) [YJ9069], the IC50 (MCF7) was 1740 nM, the IC50 (MDA-MB-468) was 678 nM and the IC50 (PC3) was 2390 nM. The “CDK12/13 degradation (immunoblot)” value (CDK12 and CDK13) was “enhanced degradation of both CDK12 and CDK13 proteins compared to 7f”, the “treated animals with tumor regression exceeding 50%” value ([1]; VCaP-CRPC) was 73% and the “partial response (PR), waterfall plot (RECIST)” value (shortened to “partial response (PR)”) ([1]; castrated VCaP) was 82%. The “stable disease (SD), waterfall plot (RECIST)” value ([1]; castrated VCaP) was 18%, the “anti-tumor effect (regression)” value (WA74 PDX; 30 mg/kg, 3 times/week, 21 days) was “regression in all animals” and the “partial response (PR)” value (WA74 PDX; i.v. 30 mg/kg 2x/week) was 43%. For the same compound, the “stable disease (SD), waterfall plot (RECIST)” value (WA74 PDX; i.v. 30 mg/kg 2x/week) was 43%, the “partial response (PR)” value (WA74 PDX; i.v. 30 mg/kg 3x/week) was 100% and the IC50 [2] was greater than 10000 nM. The IC50 [3] was less than 500 nM, the Cmax ([4]; iv, i.v. 2.5 mg/kg) was 4130 nM and the clearance ([4]; iv, i.v. 2.5 mg/kg) was 14.1 mL/min/kg. For the same compound, the half-life ([4]; iv, i.v. 2.5 mg/kg) was 4.39 h, the AUC ([4]; iv, i.v. 2.5 mg/kg, read-out: AUC(0-)) was 2970 ng·h/mL and the AUC(0-t) ([4]; iv, i.v. 2.5 mg/kg) was 2930 ng·h/mL. It also gave a Tmax ([4]; iv, i.v. 2.5 mg/kg) of 0.08 h, a Cmax ([4]; oral 10 mg/kg) of 6 nM and a bioavailability ([4]; oral 10 mg/kg vs i.v. 2.5 mg/kg, read-out: F(%) (bioavailability by oral gavage)) of 0.04%. The AUC(0-t) ([4]; oral 10 mg/kg) was 5.06 ng·h/mL, the Tmax ([4]; oral 10 mg/kg) was 1.56 h and the “body weight loss in the treated animals” value [5] was “less than 20%”. The toxicity ([6]; CD-1 female mice) was “no significant toxicity was observed”, the “genitourinary (GU) weight” value ([6]; CD-1 male mice) was “decrease in genitourinary (GU) weight” and the “serum chemistry and complete blood analyses” value ([6]; CD-1 male mice) was “no significant changes”. For the same compound, the body weight loss ([6]; CD-1 male mice, doses of 30 mg/kg and 50 mg/kg, 3x/week) was 10%, the toxicity in vivo ([6]; administered intravenously) was “mild to intermediate toxicity” and the AUC(0-t) ([7]; iv, i.v. 2.5 mg/kg) was 3150 ng·h/mL. The Cmax ([7]; iv, i.v. 2.5 mg/kg) was 3650 ng/mL, the Tmax ([7]; iv, i.v. 2.5 mg/kg) was 0.08 h and the clearance ([7]; iv, i.v. 2.5 mg/kg) was 13.1 mL/min/kg. It also gave a half-life ([7]; iv, i.v. 2.5 mg/kg) of 5.23 h, an AUC ([7]; iv, i.v. 2.5 mg/kg) of 3220 ng·h/mL and a bioavailability ([7]; oral, p.o. 10 mg/kg vs i.v. 2.5 mg/kg, read-out: F% (oral bioavailability)) of 1.02%. For the same compound, the AUC(0-t) ([7]; po, p.o. 10 mg/kg) was 128 ng·h/mL, the Cmax ([7]; po, p.o. 10 mg/kg) was 55 ng/mL and the Tmax ([7]; po, p.o. 10 mg/kg) was 0.25 h. For the same compound, the half-life ([7]; po, p.o. 10 mg/kg) was 2.44 h, the AUC ([7]; po, p.o. 10 mg/kg) was 145 ng·h/mL and the IC50 (VCaP cells; 120 h, VCaP cells, 5 days, Figure 4C, read-out: IC50) was 22.2 nM. It also gave an IC50 (VCaP cells; 120 h, VCaP cells, 5 days, Figure S1E, read-out: IC50) of 44 nM and an IC50 (VCaP cells; VCaP cell viability, linker optimization, Figure S4B, read-out: VCaP IC50) of 22.9 nM.
